Among the data in ChEMBL document CHEMBL3639070, “19-nor-steroid derivatives with a 15Œ±,16Œ±-methylene group and a saturated 17,17-spirolactone ring, use thereof, and medicaments containing said derivatives” (2015) are IC50 values, retold here.

In this experiment the target is T1, Progesterone receptor (Homo sapiens, UniProt P06401).
T1 sequence (P06401 whole entry): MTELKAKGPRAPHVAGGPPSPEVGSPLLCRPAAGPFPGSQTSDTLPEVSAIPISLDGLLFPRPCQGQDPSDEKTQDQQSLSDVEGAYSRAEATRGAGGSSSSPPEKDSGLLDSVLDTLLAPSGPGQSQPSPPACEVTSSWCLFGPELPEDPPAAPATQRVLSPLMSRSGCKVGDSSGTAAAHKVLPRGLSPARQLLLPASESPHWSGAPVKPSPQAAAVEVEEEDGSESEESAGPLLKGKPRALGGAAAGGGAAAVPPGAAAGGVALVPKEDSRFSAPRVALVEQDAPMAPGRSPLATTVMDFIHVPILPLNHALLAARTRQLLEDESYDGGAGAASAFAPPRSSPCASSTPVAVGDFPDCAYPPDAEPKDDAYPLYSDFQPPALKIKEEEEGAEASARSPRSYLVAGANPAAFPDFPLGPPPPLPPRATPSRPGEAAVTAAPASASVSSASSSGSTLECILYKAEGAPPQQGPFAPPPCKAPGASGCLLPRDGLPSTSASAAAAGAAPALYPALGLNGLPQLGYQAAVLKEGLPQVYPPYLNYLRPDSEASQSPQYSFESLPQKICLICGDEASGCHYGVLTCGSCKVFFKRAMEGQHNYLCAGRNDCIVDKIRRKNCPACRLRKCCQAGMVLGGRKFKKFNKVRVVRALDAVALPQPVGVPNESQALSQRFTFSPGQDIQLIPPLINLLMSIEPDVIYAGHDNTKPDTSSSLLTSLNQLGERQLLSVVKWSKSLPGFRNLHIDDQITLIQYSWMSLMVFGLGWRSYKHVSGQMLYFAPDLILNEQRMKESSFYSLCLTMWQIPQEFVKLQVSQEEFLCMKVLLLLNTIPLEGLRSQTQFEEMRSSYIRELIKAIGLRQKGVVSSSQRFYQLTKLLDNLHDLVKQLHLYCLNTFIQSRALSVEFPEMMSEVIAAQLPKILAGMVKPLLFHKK
Description: Binding Assay: Using cytosol from progesterone receptor-expressing insect cells (Hi5), competitive binding to the progesterone receptor was determined from the ability to displace 3H-progesterone as reference substance from the receptor.

A word on the IC50: it is the midpoint of a concentration-inhibition curve. For the molecule `C[C@]12CCC3C4CCC(=O)C=C4[C@@H]4C[C@@H]4C3C1C1CC1[C@@]21CCC(=O)O1` (stereo partly specified), the IC50 amounted to 16 nM.
